# Test results published in PubChem BioAssay AID1963836 (Molecular Pharmacology Branch, DTP, NCI, 2024).
# System: 857933-349-R-J2-PDC complex spheroid viability
# Experiment: Anticancer human tumor 857933-349-R-J2-PDC patient-derived colon adenocarcinoma cell line growth inhibition [POLQ]
# Conditions: for IC50: curve of first compound; for viability, T/C: stronger effect = lower value
# In short: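 PDC + HUVEC + MSC complex spheroids; POLQ inhibitors ± partner drugs; top conc. at/near clinical Cmax, else 10 microM (SN-38 1 microM), half-log dilutions; 37 degrees C, 5% CO2.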
# 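Further: spheroids exposed to compounds for seven days before readout.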
structure (smiles),measurement,setting,value
CCCS(=O)(=O)Nc1ccc(F)c(C(=O)c2c[nH]c3ncc(-c4ccc(Cl)cc4)cc23)c1F + Nc1ccc(C#CCN(C(=O)Cc2ncc(C(F)(F)F)cc2C(F)(F)F)c2ccc(F)cc2)nn1,IC50,second compound 0.0316 µM,6.17 µM
same,IC50,second compound 0.1 µM,6.22 µM
same,IC50,second compound 0.316 µM,5.99 µM
same,IC50,second compound 1 µM,6.43 µM
same,IC50,second compound 3.16 µM,6.48 µM
same,IC50,second compound 10 µM,6.48 µM
same,"viability, T/C","second compound 0.0316 µM, first compound 0.0316 µM",103%
same,"viability, T/C","second compound 0.0316 µM, first compound 0.1 µM",102%
same,"viability, T/C","second compound 0.0316 µM, first compound 0.316 µM",102%
same,"viability, T/C","second compound 0.0316 µM, first compound 1 µM",102%
same,"viability, T/C","second compound 0.0316 µM, first compound 3.16 µM",97.5%
same,"viability, T/C","second compound 0.0316 µM, first compound 10 µM",15.6%
same,"viability, T/C","second compound 0.1 µM, first compound 0.0316 µM",93.5%
same,"viability, T/C","second compound 0.1 µM, first compound 0.1 µM",112%
same,"viability, T/C","second compound 0.1 µM, first compound 0.316 µM",88.6%
same,"viability, T/C","second compound 0.1 µM, first compound 1 µM",104%
same,"viability, T/C","second compound 0.1 µM, first compound 3.16 µM",102%
same,"viability, T/C","second compound 0.1 µM, first compound 10 µM",14.9%
same,"viability, T/C","second compound 0.316 µM, first compound 0.0316 µM",103%
same,"viability, T/C","second compound 0.316 µM, first compound 0.1 µM",89%
same,"viability, T/C","second compound 0.316 µM, first compound 0.316 µM",99.6%
same,"viability, T/C","second compound 0.316 µM, first compound 1 µM",91%
same,"viability, T/C","second compound 0.316 µM, first compound 3.16 µM",98.3%
same,"viability, T/C","second compound 0.316 µM, first compound 10 µM",12.9%
same,"viability, T/C","second compound 1 µM, first compound 0.0316 µM",116%
same,"viability, T/C","second compound 1 µM, first compound 0.1 µM",93%
same,"viability, T/C","second compound 1 µM, first compound 0.316 µM",82.1%
same,"viability, T/C","second compound 1 µM, first compound 1 µM",106%
same,"viability, T/C","second compound 1 µM, first compound 3.16 µM",109%
same,"viability, T/C","second compound 1 µM, first compound 10 µM",17.9%
same,"viability, T/C","second compound 3.16 µM, first compound 0.0316 µM",77.1%
same,"viability, T/C","second compound 3.16 µM, first compound 0.1 µM",97.2%
same,"viability, T/C","second compound 3.16 µM, first compound 0.316 µM",99.3%
same,"viability, T/C","second compound 3.16 µM, first compound 1 µM",96.8%
same,"viability, T/C","second compound 3.16 µM, first compound 3.16 µM",99.6%
same,"viability, T/C","second compound 3.16 µM, first compound 10 µM",23.3%
same,"viability, T/C","second compound 10 µM, first compound 0.0316 µM",97.7%
same,"viability, T/C","second compound 10 µM, first compound 0.1 µM",90.7%
same,"viability, T/C","second compound 10 µM, first compound 0.316 µM",93.4%
same,"viability, T/C","second compound 10 µM, first compound 1 µM",86.5%
same,"viability, T/C","second compound 10 µM, first compound 3.16 µM",92%
same,"viability, T/C","second compound 10 µM, first compound 10 µM",24.6%
CC(=O)O[C@H]1C(=O)[C@@]2(C)[C@H]([C@H](OC(=O)c3ccccc3)[C@]3(O)C[C@H](OC(=O)[C@H](O)[C@@H](NC(=O)c4ccccc4)c4ccccc4)C(C)=C1C3(C)C)[C@]1(OC(C)=O)CO[C@@H]1C[C@@H]2O + COC1C(OC(N)=O)C(O)C(Oc2ccc3c(O)c(NC(=O)c4ccc(O)c(CC=C(C)C)c4)c(=O)oc3c2C)OC1(C)C,IC50,second compound 0.0316 µM,< 0.00949 µM
same,IC50,second compound 0.1 µM,0.0146 µM
same,IC50,second compound 0.316 µM,0.0132 µM
same,IC50,second compound 1 µM,0.0122 µM
same,IC50,second compound 3.16 µM,0.00976 µM
same,IC50,second compound 10 µM,0.0113 µM
same,"viability, T/C","second compound 0.0316 µM, first compound 0.00949 µM",48.7%
same,"viability, T/C","second compound 0.0316 µM, first compound 0.03 µM",25%
same,"viability, T/C","second compound 0.0316 µM, first compound 0.0949 µM",19.1%
same,"viability, T/C","second compound 0.0316 µM, first compound 0.3 µM",17.6%
same,"viability, T/C","second compound 0.0316 µM, first compound 0.949 µM",15.8%
same,"viability, T/C","second compound 0.0316 µM, first compound 3 µM",20.8%
same,"viability, T/C","second compound 0.1 µM, first compound 0.00949 µM",61%
same,"viability, T/C","second compound 0.1 µM, first compound 0.03 µM",31.7%
same,"viability, T/C","second compound 0.1 µM, first compound 0.0949 µM",15.2%
same,"viability, T/C","second compound 0.1 µM, first compound 0.3 µM",15.4%
same,"viability, T/C","second compound 0.1 µM, first compound 0.949 µM",15.1%
same,"viability, T/C","second compound 0.1 µM, first compound 3 µM",16.5%
same,"viability, T/C","second compound 0.316 µM, first compound 0.00949 µM",57.8%
same,"viability, T/C","second compound 0.316 µM, first compound 0.03 µM",30.2%
same,"viability, T/C","second compound 0.316 µM, first compound 0.0949 µM",15.7%
same,"viability, T/C","second compound 0.316 µM, first compound 0.3 µM",19.7%
same,"viability, T/C","second compound 0.316 µM, first compound 0.949 µM",13.8%
same,"viability, T/C","second compound 0.316 µM, first compound 3 µM",25.4%
same,"viability, T/C","second compound 1 µM, first compound 0.00949 µM",58.7%
same,"viability, T/C","second compound 1 µM, first compound 0.03 µM",19.7%
same,"viability, T/C","second compound 1 µM, first compound 0.0949 µM",12.8%
same,"viability, T/C","second compound 1 µM, first compound 0.3 µM",20.5%
same,"viability, T/C","second compound 1 µM, first compound 0.949 µM",16.1%
same,"viability, T/C","second compound 1 µM, first compound 3 µM",20.3%
same,"viability, T/C","second compound 3.16 µM, first compound 0.00949 µM",50.7%
same,"viability, T/C","second compound 3.16 µM, first compound 0.03 µM",21.3%
same,"viability, T/C","second compound 3.16 µM, first compound 0.0949 µM",15.2%
same,"viability, T/C","second compound 3.16 µM, first compound 0.3 µM",16.4%
same,"viability, T/C","second compound 3.16 µM, first compound 0.949 µM",16.4%
same,"viability, T/C","second compound 3.16 µM, first compound 3 µM",19.3%
same,"viability, T/C","second compound 10 µM, first compound 0.00949 µM",54.5%
same,"viability, T/C","second compound 10 µM, first compound 0.03 µM",25.5%
same,"viability, T/C","second compound 10 µM, first compound 0.0949 µM",18.3%
same,"viability, T/C","second compound 10 µM, first compound 0.3 µM",17.4%
same,"viability, T/C","second compound 10 µM, first compound 0.949 µM",15.7%
same,"viability, T/C","second compound 10 µM, first compound 3 µM",20.7%
